Source: patent US20250017856A1, “CO-FORMULATION AND CO-DELIVERY OF IONIZABLE COLLOID FORMING DRUGS WITH NUCLEIC ACIDS” (THE GOVERNING COUNCIL OF THE UNIVERSITY OF TORONTO, priority 2023, published 2025)

Assay: RNA encapsulation efficiency (modified Quant-iT RiboGreen assay) and loading
Type: physicochemical
Conditions: FxNP, siFLuc, DOPC
Excerpt: (§1) [NT] antisense (SEQ ID NO: 2): [NT] where “d” denotes a DNA base), siFLuc-2 (sense (SEQ ID NO: 3): [NT] antisense (SEQ ID NO: 4): [NT] where “d” denotes a DNA base and “m” indicates a 2'-O-methyl RNA base), sinLuc (sense (SEQ ID NO: 5): [NT] antisense SEQ ID NO: 6): [NT] where “d” denotes a DNA base), […]1 (sense (SEQ ID NO: 7): [NT] antisense (SEQ ID NO: 8): [NT] where “d” denotes a DNA base and “m” indicates a 2'-O-methyl RNA base), siNT (sense (SEQ ID NO: 9): [NT] antisense (SEQ ID NO: 10): [NT] where “d” denotes a DNA base and “m” indicates a 2'-O-methyl RNA base), mFLuc (EZ Cap Firefly Luciferase mRNA (5-moUTP), ApexBio), rRNA or RNA from Torula utilis yeast (T.U. RNA) was diluted in citrate buffer (50 or 25 mM, pH 4), malate buffer (25 mM, pH 4.0) or acetate buffer (25 mM, pH 4.0). A lipid/drug mix concentration of 5.5 mM was used with a total flow rate of 9 mL/min at a 3:1 ratio of aqueous to organic phase. […] After formulation, buffer exchange into PBS or Tris-buffered saline (TBS; pH 8.5) was performed using Amicon Ultra-4 centrifugal filters (molecular weight cut-off 10 kDa). Hydrodynamic diameter, polydispersity index (PDI), and scattering intensity were measured by dynamic light scattering (DLS) using a DynaPro Plate Reader II (Wyatt Technologies). The instrument was configured with a 60 mW 830 nm laser and a detector angle of 158°. A 25 μL sample of each formulation was pipetted into each well of a 384-well plate and measured with 20 acquisitions per sample at 25° C. […] Quant-iT RiboGreen reagent was added, and fluorescence intensity was quantified using a Tecan Infinite […] plate reader.

SMILES	Encapsulation efficiency (%)	Small molecule drug mass % [%]	siRNA mass % [%]
CC12CCC3c4ccc(O)cc4CC(CCCCCCCCCS(=O)(CCCC(F)(F)C(F)(F)F)=NC(=O)CN4CCCCC4)C3C1CCC2O (centres unmarked) [7e]	90.8	55.7	4.6
CN(C)CC(=O)N=S(=O)(CCCCCCCCCC1Cc2cc(O)ccc2C2CCC3(C)C(O)CCC3C12)CCCC(F)(F)C(F)(F)F (centres unmarked) [7f]	91.3	54.3	4.8
CC12CCC3c4ccc(O)cc4CC(CCCCCCCCCS(=O)(CCCC(F)(F)C(F)(F)F)=NC(=O)CCN4CCCCC4)C3C1CCC2O (centres unmarked) [7g]	96.6	56.0	4.8

Same assay, conditions: FxNP, siFLuc, DSPC

SMILES	Encapsulation efficiency (%)	Small molecule drug mass % [%]	siRNA mass % [%]
CC12CCC3c4ccc(O)cc4CC(CCCCCCCCCS(=O)(CCCC(F)(F)C(F)(F)F)=NC(=O)CN4CCCCC4)C3C1CCC2O (centres unmarked) [7e]	90.8	55.7	4.6
CN(C)CC(=O)N=S(=O)(CCCCCCCCCC1Cc2cc(O)ccc2C2CCC3(C)C(O)CCC3C12)CCCC(F)(F)C(F)(F)F (centres unmarked) [7f]	94.8	54.2	4.9
CC12CCC3c4ccc(O)cc4CC(CCCCCCCCCS(=O)(CCCC(F)(F)C(F)(F)F)=NC(=O)CCN4CCCCC4)C3C1CCC2O (centres unmarked) [7g]	94.7	56.0	4.7
CC12CCC3c4ccc(O)cc4CC(CCCCCCCCCS(=O)(CCCC(F)(F)C(F)(F)F)=NC(=O)CN4CCCC4)C3C1CCC2O (centres unmarked) [7h]	86.4	55.3	4.4

Same assay, conditions: FxNP, sinLuc, DOPC

SMILES	Encapsulation efficiency (%)	Small molecule drug mass % [%]	siRNA mass % [%]
CC12CCC3c4ccc(O)cc4CC(CCCCCCCCCS(=O)(CCCC(F)(F)C(F)(F)F)=NC(=O)CN4CCCCC4)C3C1CCC2O (centres unmarked) [7e]	89.7	55.7	4.5
CN(C)CC(=O)N=S(=O)(CCCCCCCCCC1Cc2cc(O)ccc2C2CCC3(C)C(O)CCC3C12)CCCC(F)(F)C(F)(F)F (centres unmarked) [7f]	92.4	54.3	4.8
CC12CCC3c4ccc(O)cc4CC(CCCCCCCCCS(=O)(CCCC(F)(F)C(F)(F)F)=NC(=O)CCN4CCCCC4)C3C1CCC2O (centres unmarked) [7g]	94.9	56.0	4.7

Same assay, conditions: siRNA, T.U. RNA, rRNA, mRNA

SMILES	nanoparticle formation with RNA cargos of varying molecular weight
CN(C)CC(=O)N=S(=O)(CCCCCCCCCC1Cc2cc(O)ccc2C2CCC3(C)C(O)CCC3C12)CCCC(F)(F)C(F)(F)F (centres unmarked) [7f]	form nanoparticles encapsulating a range of RNA cargos

Assay: Hydrodynamic diameter and polydispersity index by dynamic light scattering
Type: physicochemical
Conditions: FxNP, siFLuc, DOPC
Excerpt: as §1

SMILES	Hydrodynamic diameter (nm)	PDI
CC12CCC3c4ccc(O)cc4CC(CCCCCCCCCS(=O)(CCCC(F)(F)C(F)(F)F)=NC(=O)CN4CCCCC4)C3C1CCC2O (centres unmarked) [7e]	214.2	0.068
CN(C)CC(=O)N=S(=O)(CCCCCCCCCC1Cc2cc(O)ccc2C2CCC3(C)C(O)CCC3C12)CCCC(F)(F)C(F)(F)F (centres unmarked) [7f]	155.5	0.041
CC12CCC3c4ccc(O)cc4CC(CCCCCCCCCS(=O)(CCCC(F)(F)C(F)(F)F)=NC(=O)CCN4CCCCC4)C3C1CCC2O (centres unmarked) [7g]	186.2	0.022

Same assay, conditions: FxNP, siFLuc, DSPC

SMILES	Hydrodynamic diameter (nm)	PDI
CC12CCC3c4ccc(O)cc4CC(CCCCCCCCCS(=O)(CCCC(F)(F)C(F)(F)F)=NC(=O)CN4CCCCC4)C3C1CCC2O (centres unmarked) [7e]	132.6	0.041
CN(C)CC(=O)N=S(=O)(CCCCCCCCCC1Cc2cc(O)ccc2C2CCC3(C)C(O)CCC3C12)CCCC(F)(F)C(F)(F)F (centres unmarked) [7f]	147.8	0.075
CC12CCC3c4ccc(O)cc4CC(CCCCCCCCCS(=O)(CCCC(F)(F)C(F)(F)F)=NC(=O)CCN4CCCCC4)C3C1CCC2O (centres unmarked) [7g]	170.8	0.076
CC12CCC3c4ccc(O)cc4CC(CCCCCCCCCS(=O)(CCCC(F)(F)C(F)(F)F)=NC(=O)CN4CCCC4)C3C1CCC2O (centres unmarked) [7h]	160.5	0.183

Same assay, conditions: FxNP, sinLuc, DOPC

SMILES	Hydrodynamic diameter (nm)	PDI
CC12CCC3c4ccc(O)cc4CC(CCCCCCCCCS(=O)(CCCC(F)(F)C(F)(F)F)=NC(=O)CN4CCCCC4)C3C1CCC2O (centres unmarked) [7e]	215.1	0.066
CN(C)CC(=O)N=S(=O)(CCCCCCCCCC1Cc2cc(O)ccc2C2CCC3(C)C(O)CCC3C12)CCCC(F)(F)C(F)(F)F (centres unmarked) [7f]	161.0	0.039
CC12CCC3c4ccc(O)cc4CC(CCCCCCCCCS(=O)(CCCC(F)(F)C(F)(F)F)=NC(=O)CCN4CCCCC4)C3C1CCC2O (centres unmarked) [7g]	181.8	0.042

Assay: Zeta potential (Malvern Zetasizer)
Type: physicochemical
Conditions: FxNP, siFLuc, DOPC
Protocol: Zeta potential was measured by diluting FXNPs in phosphate to an ion concentration of 1 mM and using a Malvern Zetasizer Nano ZS instrument.

SMILES	Zeta potential (mV)
CC12CCC3c4ccc(O)cc4CC(CCCCCCCCCS(=O)(CCCC(F)(F)C(F)(F)F)=NC(=O)CN4CCCCC4)C3C1CCC2O (centres unmarked) [7e]	−2.88
CN(C)CC(=O)N=S(=O)(CCCCCCCCCC1Cc2cc(O)ccc2C2CCC3(C)C(O)CCC3C12)CCCC(F)(F)C(F)(F)F (centres unmarked) [7f]	−5.09
CC12CCC3c4ccc(O)cc4CC(CCCCCCCCCS(=O)(CCCC(F)(F)C(F)(F)F)=NC(=O)CCN4CCCCC4)C3C1CCC2O (centres unmarked) [7g]	3.39

Same assay, conditions: FxNP, siFLuc, DSPC

SMILES	Zeta potential (mV)
CC12CCC3c4ccc(O)cc4CC(CCCCCCCCCS(=O)(CCCC(F)(F)C(F)(F)F)=NC(=O)CN4CCCCC4)C3C1CCC2O (centres unmarked) [7e]	−11.13
CN(C)CC(=O)N=S(=O)(CCCCCCCCCC1Cc2cc(O)ccc2C2CCC3(C)C(O)CCC3C12)CCCC(F)(F)C(F)(F)F (centres unmarked) [7f]	−10.01
CC12CCC3c4ccc(O)cc4CC(CCCCCCCCCS(=O)(CCCC(F)(F)C(F)(F)F)=NC(=O)CCN4CCCCC4)C3C1CCC2O (centres unmarked) [7g]	−4.92
CC12CCC3c4ccc(O)cc4CC(CCCCCCCCCS(=O)(CCCC(F)(F)C(F)(F)F)=NC(=O)CN4CCCC4)C3C1CCC2O (centres unmarked) [7h]	−7.54

Same assay, conditions: FxNP, sinLuc, DOPC

SMILES	Zeta potential (mV)
CC12CCC3c4ccc(O)cc4CC(CCCCCCCCCS(=O)(CCCC(F)(F)C(F)(F)F)=NC(=O)CN4CCCCC4)C3C1CCC2O (centres unmarked) [7e]	−7.23
CN(C)CC(=O)N=S(=O)(CCCCCCCCCC1Cc2cc(O)ccc2C2CCC3(C)C(O)CCC3C12)CCCC(F)(F)C(F)(F)F (centres unmarked) [7f]	−3.97
CC12CCC3c4ccc(O)cc4CC(CCCCCCCCCS(=O)(CCCC(F)(F)C(F)(F)F)=NC(=O)CCN4CCCCC4)C3C1CCC2O (centres unmarked) [7g]	0.01

Assay: not given
Conditions: ionizable compound (fulvestrant analog); cited from earlier work

SMILES	pKa
CC12CCC3c4ccc(O)cc4CC(CCCCCCCCCS(=O)(CCCC(F)(F)C(F)(F)F)=NC(=O)CN4CCCCC4)C3C1CCC2O (centres unmarked) [7e]	6.4
CN(C)CC(=O)N=S(=O)(CCCCCCCCCC1Cc2cc(O)ccc2C2CCC3(C)C(O)CCC3C12)CCCC(F)(F)C(F)(F)F (centres unmarked) [7f]	7.0
CC12CCC3c4ccc(O)cc4CC(CCCCCCCCCS(=O)(CCCC(F)(F)C(F)(F)F)=NC(=O)CCN4CCCCC4)C3C1CCC2O (centres unmarked) [7g]	7.3
CC12CCC3c4ccc(O)cc4CC(CCCCCCCCCS(=O)(CCCC(F)(F)C(F)(F)F)=NC(=O)CN4CCCC4)C3C1CCC2O (centres unmarked) [7h]	7.3
